Data: ChEMBL document CHEMBL4396916, “Novel potent substituted 4-amino-2-thiopyrimidines as dual VEGFR-2 and BRAF kinase inhibitors” (Eur J Med Chem, 2019)

Columns and labels:
[1] = tested on: NCI-H226; test: Growth inhibition of human NCI-H226 cells at 10 uM incubated for 48 hrs by sulforhodamine B assay relative to control; type: functional; conditions: NCI-H226, 48 h, read-out: GI
[2] = tested on: MCF7; test: Cytotoxicity against human MCF7 cells expressing VEGFR2 and wild type BRAF measured after 48 hrs by sulforhodamine B assay; type: functional, cell-based; conditions: MCF7, 48 h
[3] = tested on: NCI-H522; test: Growth inhibition of human NCI-H522 cells at 10 uM incubated for 48 hrs by sulforhodamine B assay relative to control; type: functional; conditions: NCI-H522, 48 h, read-out: GI
[4] = tested on: Malme-3M; test: Growth inhibition of human MALME-3M cells at 10 uM incubated for 48 hrs by sulforhodamine B assay relative to control; type: functional; conditions: read-out: GI
[5] = tested on: T47D; test: Cytotoxicity against human T47D cells expressing wild type BRAF measured after 48 hrs by sulforhodamine B assay; type: functional, cell-based
[6] = tested on: Hs-578T; test: Growth inhibition of human Hs578T cells at 10 uM incubated for 48 hrs by sulforhodamine B assay relative to control; type: functional; conditions: read-out: GI
[7] = tested on: SN12C; test: Growth inhibition of human SN12C cells at 10 uM incubated for 48 hrs by sulforhodamine B assay relative to control; type: functional; conditions: read-out: GI
[8] = tested on: OVCAR-5; test: Growth inhibition of human OVCAR5 cells at 10 uM incubated for 48 hrs by sulforhodamine B assay relative to control; type: functional; conditions: OVCAR-5, 48 h, read-out: GI
[9] = tested on: HCT-15; test: Growth inhibition of human HCT15 cells at 10 uM incubated for 48 hrs by sulforhodamine B assay relative to control; type: functional; conditions: HCT-15, 48 h, read-out: GI
[10] = tested on: NCI-H23; test: Growth inhibition of human NCI-H23 cells at 10 uM incubated for 48 hrs by sulforhodamine B assay relative to control; type: functional; conditions: NCI-H23, 48 h, read-out: GI
[11] = tested on: OVCAR-4; test: Growth inhibition of human OVCAR4 cells at 10 uM incubated for 48 hrs by sulforhodamine B assay relative to control; type: functional; conditions: OVCAR-4, 48 h, read-out: GI
[12] = tested on: IGROV-1; test: Growth inhibition of human IGROV1 cells at 10 uM incubated for 48 hrs by sulforhodamine B assay relative to control; type: functional; conditions: IGROV-1, 48 h, read-out: GI
[13] = tested on: SF-539; test: Growth inhibition of human SF539 cells at 10 uM incubated for 48 hrs by sulforhodamine B assay relative to control; type: functional; conditions: SF-539, 48 h, read-out: GI
[14] = tested on: T47D; test: Growth inhibition of human T47D cells at 10 uM incubated for 48 hrs by sulforhodamine B assay relative to control; type: functional; conditions: read-out: GI
[15] = tested on: MDA-MB-231; test: Growth inhibition of human MDA-MB-231 cells at 10 uM incubated for 48 hrs by sulforhodamine B assay relative to control; type: functional; conditions: MDA-MB-231, 48 h, read-out: GI
[16] = tested on: CCRF-CEM; test: Growth inhibition of human CCRF-CEM cells at 10 uM incubated for 48 hrs by sulforhodamine B assay relative to control; type: functional; conditions: read-out: GI
[17] = tested on: NCI/ADR-RES; test: Growth inhibition of human NCI/ADR-RES cells at 10 uM incubated for 48 hrs by sulforhodamine B assay relative to control; type: functional; conditions: read-out: GI
[18] = tested on: A498; test: Growth inhibition of human A498 cells at 10 uM incubated for 48 hrs by sulforhodamine B assay relative to control; type: functional; conditions: A498, 48 h, read-out: GI
[19] = tested on: CAKI-1; test: Growth inhibition of human Caki1 cells at 10 uM incubated for 48 hrs by sulforhodamine B assay relative to control; type: functional; conditions: CAKI-1, 48 h, read-out: GI
[20] = tested on: EKVX; test: Growth inhibition of human EKVX cells at 10 uM incubated for 48 hrs by sulforhodamine B assay relative to control; type: functional; conditions: read-out: GI
[21] = tested on: K562; test: Growth inhibition of human K562 cells at 10 uM incubated for 48 hrs by sulforhodamine B assay relative to control; type: functional; conditions: K562, 48 h, read-out: GI
[22] = tested on: ACHN; test: Growth inhibition of human ACHN cells at 10 uM incubated for 48 hrs by sulforhodamine B assay relative to control; type: functional; conditions: read-out: GI
[23] = tested on: HOP-62; test: Growth inhibition of human HOP62 cells at 10 uM incubated for 48 hrs by sulforhodamine B assay relative to control; type: functional; conditions: HOP-62, 48 h, read-out: GI
[24] = tested on: MDA-MB-468; test: Growth inhibition of human MDA-MB-468 cells at 10 uM incubated for 48 hrs by sulforhodamine B assay relative to control; type: functional; conditions: MDA-MB-468, 48 h, read-out: GI
[25] = tested on: HCT-116; test: Growth inhibition of human HCT116 cells at 10 uM incubated for 48 hrs by sulforhodamine B assay relative to control; type: functional; conditions: HCT-116, 48 h, read-out: GI
[26] = tested on: MOLT-4; test: Growth inhibition of human MOLT4 cells at 10 uM incubated for 48 hrs by sulforhodamine B assay relative to control; type: functional; conditions: MOLT-4, 48 h, read-out: GI
[27] = tested on: RPMI-8226; test: Growth inhibition of human RPMI8226 cells at 10 uM incubated for 48 hrs by sulforhodamine B assay relative to control; type: functional; conditions: RPMI-8226, 48 h, read-out: GI
[28] = tested on: MCF7; test: Growth inhibition of human MCF7 cells at 10 uM incubated for 48 hrs by sulforhodamine B assay relative to control; type: functional; conditions: MCF7, 48 h, read-out: GI
[29] = tested on: SK-OV-3; test: Growth inhibition of human SKOV3 cells at 10 uM incubated for 48 hrs by sulforhodamine B assay relative to control; type: functional; conditions: SK-OV-3, 48 h, read-out: GI
[30] = tested on: UO-31; test: Growth inhibition of human UO31 cells at 10 uM incubated for 48 hrs by sulforhodamine B assay relative to control; type: functional; conditions: UO-31, 48 h, read-out: GI
[31] = tested on: UACC-62; test: Growth inhibition of human UACC62 cells at 10 uM incubated for 48 hrs by sulforhodamine B assay relative to control; type: functional; conditions: UACC-62, 48 h, read-out: GI
[32] = tested on: A549; test: Growth inhibition of human A549/ATCC cells at 10 uM incubated for 48 hrs by sulforhodamine B assay relative to control; type: functional; conditions: A549, 48 h, read-out: GI
[33] = target: Vascular endothelial growth factor receptor 2 (Homo sapiens, UniProt P35968); test: Inhibition of human N-terminal GST tagged VEGFR-2 expressed in baculovirus infected Sf9 cells using poly (Glu,Tyr) 4:1 as substrate in presence of ATP by Kinase-Glo luminescence assay
Chain of Vascular endothelial growth factor receptor 2 (P35968 whole entry): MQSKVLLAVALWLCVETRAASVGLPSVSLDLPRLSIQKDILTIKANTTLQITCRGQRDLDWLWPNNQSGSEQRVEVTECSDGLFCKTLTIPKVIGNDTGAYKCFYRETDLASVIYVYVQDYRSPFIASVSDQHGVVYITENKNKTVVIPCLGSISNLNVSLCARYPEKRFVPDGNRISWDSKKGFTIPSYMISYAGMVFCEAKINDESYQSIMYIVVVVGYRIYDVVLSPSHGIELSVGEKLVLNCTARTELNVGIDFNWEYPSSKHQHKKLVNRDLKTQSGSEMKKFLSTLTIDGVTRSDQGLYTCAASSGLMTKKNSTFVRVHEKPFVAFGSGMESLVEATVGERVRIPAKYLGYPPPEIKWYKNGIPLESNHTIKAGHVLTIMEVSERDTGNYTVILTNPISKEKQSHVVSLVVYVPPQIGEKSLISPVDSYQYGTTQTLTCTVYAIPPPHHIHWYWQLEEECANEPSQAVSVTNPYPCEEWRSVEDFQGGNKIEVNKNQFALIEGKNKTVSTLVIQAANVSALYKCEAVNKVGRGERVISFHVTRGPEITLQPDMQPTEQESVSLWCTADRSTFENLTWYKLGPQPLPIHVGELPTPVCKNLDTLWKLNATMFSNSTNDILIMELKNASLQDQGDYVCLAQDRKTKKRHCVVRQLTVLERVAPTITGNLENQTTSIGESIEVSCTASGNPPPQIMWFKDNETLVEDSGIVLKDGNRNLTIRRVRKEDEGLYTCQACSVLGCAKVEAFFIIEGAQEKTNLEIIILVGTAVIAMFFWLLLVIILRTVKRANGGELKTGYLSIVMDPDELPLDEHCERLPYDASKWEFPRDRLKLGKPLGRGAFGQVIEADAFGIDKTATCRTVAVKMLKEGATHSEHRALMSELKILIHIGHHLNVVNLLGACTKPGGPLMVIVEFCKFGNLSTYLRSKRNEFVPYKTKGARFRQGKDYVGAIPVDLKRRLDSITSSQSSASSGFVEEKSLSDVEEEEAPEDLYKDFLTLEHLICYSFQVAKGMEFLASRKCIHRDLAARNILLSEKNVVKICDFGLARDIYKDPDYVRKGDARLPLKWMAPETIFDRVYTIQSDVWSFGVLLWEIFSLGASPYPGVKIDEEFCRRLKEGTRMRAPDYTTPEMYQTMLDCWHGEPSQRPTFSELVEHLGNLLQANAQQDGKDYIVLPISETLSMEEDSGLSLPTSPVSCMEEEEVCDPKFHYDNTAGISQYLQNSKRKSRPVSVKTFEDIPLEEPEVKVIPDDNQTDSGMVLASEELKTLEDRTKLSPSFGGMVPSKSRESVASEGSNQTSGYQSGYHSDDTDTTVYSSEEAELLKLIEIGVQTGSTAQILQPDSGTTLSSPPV

[34] = tested on: HOP-92; test: Growth inhibition of human HOP92 cells at 10 uM incubated for 48 hrs by sulforhodamine B assay relative to control; type: functional; conditions: HOP-92, 48 h, read-out: GI
[35] = tested on: MCF7; test: Inhibition of VEGFR2 level in human MCF7 cells at 10 uM measured after 48 hrs by ELISA relative to control; type: functional; conditions: MCF7, 48 h
[36] = tested on: PC-3; test: Growth inhibition of human PC3 cells at 10 uM incubated for 48 hrs by sulforhodamine B assay relative to control; type: functional; conditions: PC-3, 48 h, read-out: GI

CC(=O)c1cccc(Nc2ccnc(SCC(=O)c3ccc(-c4ccccc4)cc3)n2)c1
inhibition of growth at 10 µM [1]: 22% | IC50 [2]: 24.4 µM | inhibition of growth at 10 µM [3]: 38% | inhibition of growth at 10 µM [4]: 17% | IC50 [5]: 12.1 µM | inhibition of growth at 10 µM [6]: 14% | inhibition of growth at 10 µM [7]: 13% | inhibition of growth at 10 µM [8]: 12% | inhibition of growth at 10 µM [9]: 15% | inhibition of growth at 10 µM [10]: 18% | inhibition of growth at 10 µM [11]: 12% | inhibition of growth at 10 µM [12]: 20% | inhibition of growth at 10 µM [13]: 11% | inhibition of growth at 10 µM [14]: 49% | inhibition of growth at 10 µM [15]: 41% | inhibition of growth at 10 µM [16]: 28% | inhibition of growth at 10 µM [17]: 14% | inhibition of growth at 10 µM [18]: 40% | inhibition of growth at 10 µM [19]: 23% | inhibition of growth at 10 µM [20]: 15% | inhibition of growth at 10 µM [21]: 16% | inhibition of growth at 10 µM [22]: 12% | inhibition of growth at 10 µM [23]: 19% | inhibition of growth at 10 µM [24]: 14% | inhibition of growth at 10 µM [25]: 14% | inhibition of growth at 10 µM [26]: 29% | inhibition of growth at 10 µM [27]: 34% | inhibition of growth at 10 µM [28]: 12% | inhibition of growth at 10 µM [29]: 22% | inhibition of growth at 10 µM [30]: 40% | inhibition of growth at 10 µM [31]: 24% | inhibition of growth at 10 µM [32]: 14% | IC50 [33]: 740 nM | inhibition of growth at 10 µM [34]: 17% | inhibition at 10 µM [35]: 36% | inhibition of growth at 10 µM [36]: 25%
